From article PMC6066642 (2018)

Assays:
[1] = system: hTeloC (DNA, i motif) CCCTAACCCTAACCCTAACCCT; assay: CD melting; conditions: Na+ (10 mM sodium phosphate); pH 5.7; 5 equivalents of compound, 10-15 μM DNA
[2] = system: mutTel24 (DNA, G4) TTGGGTTAGGGTTAGGGTTAGGGA; assay: CD melting; conditions: K+ (10 mM potassium phosphate); pH 5.7; 5 equivalents of compound, 10-15 μM DNA
[3] = system: hTeloCFID (DNA, i motif) TAACCCTAACCCTAACCCTAACCC; assay: fluorescent intercalator displacement; conditions: Na+ (10 mM NaH2PO4); pH 5.7; thiazole orange 2 μM displaced
[4] = system: mutTel24FID (DNA, G4) TTTGGGTTAGGGTTAGGGTTAGGGA; assay: fluorescent intercalator displacement; conditions: K+ (10 mM KH2PO4); pH 5.7; thiazole orange 2 μM displaced

`CN(C)c1ccc(Nc2c3ccc(NC(=O)CCN4CCCC4)cc3nc3cc(NC(=O)CCN4CCCC4)ccc23)cc1` was tested, and the ΔT1/2 [1] was -9.2 ± 0.5 °C, the ΔT1/2 [2] was “+8.9 ± 0.5 °C” and the DC50 [3] was 0.87 ± 8.08E-04 μM. For the same compound, the DC50 [4] was 0.50 ± 1.95E-03 μM.

`Cc1cc2c3c([n+](C)c4ccc(F)cc4c3c1)-c1cc(F)ccc1N2C` was tested, and the ΔT1/2 [1] was -0.3 ± 0.5 °C and the ΔT1/2 [2] was “+20.6 ± 0.5 °C”.

For `O=C1c2c(O)ccc(O)c2C(=O)c2c(NCCNCCO)ccc(NCCNCCO)c21`, the ΔT1/2 [1] was -9.9 ± 0.5 °C, the ΔT1/2 [2] was “+4.5 ± 0.5 °C” and the DC50 [3] was 1.34 ± 6.99E-03 μM. The DC50 [4] was 0.95 ± 6.07E-03 μM.

With `NCCOc1cc(C(=O)Nc2cc(OCCN)c3ccccc3n2)nc(C(=O)Nc2cc(OCCN)c3ccccc3n2)c1` the ΔT1/2 [1] was “+0.8 ± 0.5 °C”, the ΔT1/2 [2] was “+8.8 ± 0.5 °C” and the DC50 [3] was 18.02 ± 5.89E-02 μM. It also gave a DC50 [4] of 9.42 ± 3.90E-02 μM.

`C[n+]1cc(NC(=O)c2ccc3ccc4ccc(C(=O)Nc5cc6ccccc6[n+](C)c5)nc4c3n2)cc2ccccc21` was tested, and the ΔT1/2 [1] was -6.8 ± 0.5 °C, the ΔT1/2 [2] was “+14.4 ± 0.5 °C” and the DC50 [3] was 0.95 ± 3.79E-03 μM. For the same compound, the DC50 [4] was 0.39 ± 1.42E-03 μM.

With `COc1ccc2cc3[n+](cc2c1OC)CCc1cc2c(cc1-3)OCO2` the ΔT1/2 [1] was -0.8 ± 0.5 °C, the ΔT1/2 [2] was “+12.4 ± 0.5 °C” and the DC50 [3] was 1.46 ± 5.88E-03 μM. For the same compound, the DC50 [4] was 1.26 ± 7.22E-03 μM.
